According to US8952128B2, “Somatostatin-dopamine chimeric analogs” (priority 2012, dated 2015):
Read-outs that look alike come from different tables or passages of the source. Numbered stars: 1 amine (or outer) side, 2 acyl side, 3 side chain; on linkers, the order of the positions; unused ones are H or OH. Bridge positions count the residues as written; N and C are the ends. Square brackets hold non-standard residues; d marks the D form. Peptide text beside a SMILES is read from it. X1 = CN1C[C@H](CSCCN(CCSC[C@@H]2C[C@@H]3c4cccc5[nH]cc(c45)C[C@H]3N(C)C2)[C@H](CCCCN[*:2])C(=O)[*:1])C[C@@H]2c3cccc4[nH]cc(c34)C[C@H]21

Tests used:
[1] = test system: pituitary tumor cells of acromegalic patients presenting with macroadenoma; assay: Human pituitary adenoma cell growth hormone release assay; format: cell-based; details: 18 hours incubation, FIG. 5
Protocol: FIG. 1 is a graph showing the Growth hormone suppressing activity of Compound 4 (see Table I hereinbelow for its chemical name and its corresponding structural representation) on pituitary tumor cells of acromegalic patients presenting with macroadenoma. Various concentrations of Compound 4 were added to the medium and the cells were incubated for 18 hours before measurement of Growth hormone levels in the medium using the AlphaLISA Growth Hormone Immunoassay Research kit (PerkinElmer).
Various concentrations of Compounds 4 and 5 were added to the medium and the cells were incubated for 18 hours before measurement of Growth hormone levels in the medium using the AlphaLISA Growth Hormone Immunoassay Research kit (PerkinElmer).
Acromegalic patients presenting with macroadenoma underwent transsphenoidal surgery and a portion of each tumor obtained at surgery was dissociated by enzymatic and mechanical methods. The cells were cultured in DMEM medium supplemented with 10% FBS and antibiotics for 3 days. The cells were then plated in multi-well tissue culture dishes coated with extracellular matrix from bovine endothelial corneal cells at a density of 3-5×10^4 cells/well in DMEM supplemented with 10% FBS and antibiotics. After 2-3 days of culture, the medium was changed to DMEM supplemented with 1% FBS, antibiotics and 1% ITS (insulin, transferrin and selenium).

[2] = molecular target: T1, hDRD2 (Homo sapiens (Human), UniProt P14416); assay: cell-based
Protocol: The ability of select compounds according to the present invention to activate hSSTR2 and hDRD2 was determined by the intracellular calcium mobilization assay using FLIPR Calcium 4 assay kit (Molecular Devices).
Cells expressing hSSTR2 or hDRD2 were plated in 384-well microplates in tissue culture media and incubated for 16-24 hours at 37° C. in a humidified atmosphere with 5% CO2. Medium was replaced by loading buffer containing Hank's buffered saline, 20 mM HEPES, 2.5 mM probenecid and Calcium 4 dye, and the plates were incubated at 37° C. for 60 minutes.

[3] = molecular target: T2, hSSTR2 (Homo sapiens (Human), UniProt P30874); assay: Intracellular calcium mobilization assay (FLIPR Calcium 4), hSSTR2; format: cell-based; details: for Emax: read-out: hSSTR2 % Emax ± SEM;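 for all read-outs here: agonist activity read as intracellular calcium rise in cells expressing human SSTR2, loaded with a calcium-sensitive dye for 60 min at 37 °C, measured by FLIPR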
[4] = molecular target: hSSTR3 (Homo sapiens (Human), UniProt P32745); assay: Somatostatin receptor radioligand binding assay, hSSTR3; details: CHO-K1 membranes, [125I-Tyr11]-SRIF-14; read-out: hSSTR3 Ki (nM) ± SEM
Protocol: (§1) The affinities of a test compound for the human somatostatin receptors were determined by radioligand binding assays in CHO-K1 cells stably transfected with each of the human somatostatin receptor subtypes, hSSTR1-5. […] Clonal cell lines stably expressing each of the somatostatin receptors were obtained by transfection into CHO-K1 cells (ATCC) and subsequently selected with culture media containing 0.8 mg/mL of G418 (Life Technologies).
(§2) Membranes for in vitro receptor binding assays were obtained by the following procedures. CHO-K1 cells expressing one of the somatostatin receptors were homogenized in ice-cold buffer with 10 mM Tris-HCl, 5 mM EDTA, 3 mM EGTA, 1 mM phenylmethylsuphonyl fluoride, pH 7.6, using Polytron PT10-35GT (Kinematica) at 18,000 rpm for 30 seconds and centrifuged at 500×g for 10 minutes. The supernatant containing the plasma membranes was centrifuged at 100,000×g for 30 minutes and the pellet was resuspended in buffer containing 20 mM glycine-glycine, 1 mM MgCl2, 250 mM sucrose, pH 7.2, for storage at −80° C.
(§3) For the hSSTR3 and 4 assays, membranes and various concentrations of test compounds were incubated in 96-well plates for 60 minutes at 25° C. with 0.05 nM [^125I-Tyr^11]-SRIF-14 (PerkinElmer Life Science) in 50 mM HEPES, 0.2% BSA, 5 mM MgCl2, 200 KIU/mL trasylol, 0.02 mg/mL bacitracin, and 0.02 mg/mL phenylmethylsuphonyl fluoride, pH 7.5.
(§4) The incubations were terminated by rapid filtration through GF/C glass microfiber filter plates (pre-wet with 0.3% polyethyleneimine and 0.1% BSA) using a 96-well cell harvester (Brandel). Plates were washed six times with 1 mL/well aliquots of ice-cold buffer containing 50 mM Tris buffer, pH 7.7. Specific binding was defined as the total radioligand bound minus the bound in the presence of 1000 nM SRIF-14.

[5] = molecular target: hSSTR4 (Homo sapiens (Human), UniProt P31391); assay: Somatostatin receptor radioligand binding assay, hSSTR4; details: CHO-K1 membranes, [125I-Tyr11]-SRIF-14; read-out: hSSTR4 Ki (nM) ± SEM
Protocol: as §1, §2, §3, §4

[6] = molecular target: T2, hSSTR2; assay: Somatostatin receptor radioligand binding assay, hSSTR2; details: CHO-K1 membranes, [125I-Tyr]-seglitide; read-out: hSSTR2 Ki (nM) ± SEM
Protocol: The affinities of a test compound for the human somatostatin receptors were determined by radioligand binding assays in CHO-K1 cells stably transfected with each of the human somatostatin receptor subtypes, hSSTR1-5. The cDNA coding sequences of hSSTR1 (GenBank accession No. NM—001049.1), hSSTR2 (GenBank accession No. XM—012697.1), hSSTR3 (GenBank accession No. XM—009963.1), hSSTR4 (GenBank accession No. NM—001052.1), and hSSTR5 (GenBank accession No. XM—012565.1) were subcloned into the mammalian expression vector pcDNA3.1 (Life Technologies). Clonal cell lines stably expressing each of the somatostatin receptors were obtained by transfection into CHO-K1 cells (ATCC) and subsequently selected with culture media containing 0.8 mg/mL of G418 (Life Technologies).
Membranes for in vitro receptor binding assays were obtained by the following procedures. […] The supernatant containing the plasma membranes was centrifuged at 100,000×g for 30 minutes and the pellet was resuspended in buffer containing 20 mM glycine-glycine, 1 mM MgCl2, 250 mM sucrose, pH 7.2, for storage at −80° C. […]

[7] = molecular target: T1, hDRD2; format: binding; details: CHO-K1 membranes, [3H]-spiperone; read-out: hDRD2 Ki (nM) ± SEM

T2 sequence (P30874 whole entry): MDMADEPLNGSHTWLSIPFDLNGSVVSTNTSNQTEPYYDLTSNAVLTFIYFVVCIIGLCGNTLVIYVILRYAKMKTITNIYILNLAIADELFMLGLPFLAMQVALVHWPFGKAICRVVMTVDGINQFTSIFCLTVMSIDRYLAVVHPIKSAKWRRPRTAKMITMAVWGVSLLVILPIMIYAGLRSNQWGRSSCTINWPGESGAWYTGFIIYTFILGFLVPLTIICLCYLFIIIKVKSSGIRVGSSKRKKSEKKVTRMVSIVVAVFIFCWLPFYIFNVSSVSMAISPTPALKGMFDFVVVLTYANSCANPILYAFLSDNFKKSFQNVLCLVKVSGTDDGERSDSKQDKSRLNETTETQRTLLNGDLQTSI
Chain of hSSTR4 (P31391 whole entry): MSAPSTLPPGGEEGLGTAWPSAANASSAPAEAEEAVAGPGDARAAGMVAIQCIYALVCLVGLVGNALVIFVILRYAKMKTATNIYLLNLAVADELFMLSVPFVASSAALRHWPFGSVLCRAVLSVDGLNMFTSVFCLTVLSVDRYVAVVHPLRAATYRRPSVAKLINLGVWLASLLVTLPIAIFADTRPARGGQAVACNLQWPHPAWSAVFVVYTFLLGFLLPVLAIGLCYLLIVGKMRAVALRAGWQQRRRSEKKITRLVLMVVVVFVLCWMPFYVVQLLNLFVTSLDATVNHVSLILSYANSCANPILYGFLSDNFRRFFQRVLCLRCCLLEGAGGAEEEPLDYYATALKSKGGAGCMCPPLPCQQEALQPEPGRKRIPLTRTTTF
Chain of hSSTR3 (P32745 whole entry): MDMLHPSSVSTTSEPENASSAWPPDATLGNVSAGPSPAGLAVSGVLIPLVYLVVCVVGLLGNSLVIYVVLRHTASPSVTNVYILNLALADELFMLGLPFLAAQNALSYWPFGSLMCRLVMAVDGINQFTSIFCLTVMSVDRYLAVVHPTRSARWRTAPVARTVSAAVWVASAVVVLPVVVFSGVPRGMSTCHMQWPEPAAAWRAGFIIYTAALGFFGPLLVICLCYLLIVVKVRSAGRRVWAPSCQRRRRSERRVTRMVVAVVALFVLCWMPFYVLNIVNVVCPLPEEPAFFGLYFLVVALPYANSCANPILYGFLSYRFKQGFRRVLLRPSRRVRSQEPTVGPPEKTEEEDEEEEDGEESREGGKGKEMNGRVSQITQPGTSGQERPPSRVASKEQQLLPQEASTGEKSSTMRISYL

| Structure (SMILES) | Growth hormone suppressing activity compared to parent somatostatin analogs [1] | EC50 [2] | EC50 [3] | improvement in EC50 and/or % Emax over Reference Compound B ([3]; calcium mobilization) | Emax [3] | other results |
| --- | --- | --- | --- | --- | --- | --- |
| C[C@@H](O)[C@@H]1NC(=O)[C@H](CCCCN)NC(=O)[C@@H](Cc2c[nH]c3ccccc23)NC(=O)[C@H](Cc2ccncc2)NC(=O)[C@H](Cc2ccccc2)NC(=O)[C@H](CCCNC(=N)N)NC(=O)[C@H](NC[C@H](Cc2ccc(O)cc2)NC(=O)CSC[C@@H]2C[C@@H]3c4cccc5[nH]cc(c45)C[C@H]3N(C)C2)CCCCNC(=O)[C@H](Cc2ccccc2)NC1=O [Compound 4, Dop1-Tyr-psi(CH2NH)-cyclo(DLys-Arg-Phe-4Pal-DTrp-Lys-Thr-Phe)] | enhanced Growth hormone suppressing activity | 20.1 ± 2.6 nM | 7.6 ± 1.5 nM | statistically significant improvement | 100 ± 2.9% | – |
| C[C@@H](O)[C@@H]1NC(=O)[C@H](CCCCN)NC(=O)[C@@H](Cc2c[nH]c3ccccc23)NC(=O)[C@H](Cc2ccccc2)NC(=O)[C@H](Cc2ccccc2)NC(=O)[C@H](CCCNC(=N)N)NC(=O)[C@H](NC[C@H](Cc2ccc(O)cc2)NC(=O)CSC[C@@H]2C[C@@H]3c4cccc5[nH]cc(c45)C[C@H]3N(C)C2)CCCCNC(=O)[C@H](Cc2ccc(F)cc2)NC1=O [Compound 5, Dop1-Tyr-psi(CH2NH)-cyclo(DLys-Arg-Phe-Phe-DTrp-Lys-Thr-4FPhe)] | enhanced Growth hormone suppressing activity | 30.1 ± 5.3 nM | 14.6 ± 1.9 nM | statistically significant improvement | 97 ± 3.6% | – |
| C[C@@H](O)[C@@H]1NC(=O)[C@H](CCCCN)NC(=O)[C@@H](Cc2c[nH]c3ccccc23)NC(=O)[C@H](Cc2ccncc2)NC(=O)[C@H](Cc2ccccc2)NC(=O)[C@H](CCCNC(=N)N)NC(=O)[C@H](NCC[S@@+]([O-])C[C@@H]2C[C@@H]3c4cccc5[nH]cc(c45)C[C@H]3N(C)C2)CCCCNC(=O)[C@H](Cc2ccc(O)cc2)NC1=O [Compound 12, Dop1[(S)SO]-psi(CH2NH)-cyclo(DLys-Arg-Phe-4Pal-DTrp-Lys-Thr-Tyr)] | – | – | – | – | 90.9 ± 12.9% | Ki [4]: 143 ± 65.2 nM; Ki [5]: 3.2 ± 0.7 nM |
| C[C@@H](O)[C@@H]1NC(=O)[C@H](CCCCN)NC(=O)[C@@H](Cc2c[nH]c3ccccc23)NC(=O)[C@H](Cc2cccnc2)NC(=O)[C@H](Cc2ccccc2)NC(=O)[C@H](CCCNC(=N)N)NC(=O)[C@H](NC[C@H](Cc2ccc(O)cc2)NC(=O)CSC[C@@H]2C[C@@H]3c4cccc5[nH]cc(c45)C[C@H]3N(C)C2)CCCCNC(=O)[C@H](Cc2ccccc2)NC1=O [Compound 38, Dop1-Tyr-psi(CH2NH)-cyclo(DLys-Arg-Phe-3Pal-DTrp-Lys-Thr-Phe)] | – | 7.5 ± 0.1 nM | – | – | – | Ki [6]: 0.76 ± 0.23 nM; EC50 ([3]; calcium mobilization, read-out: hSSTR2 EC50 (nM) ± SEM): 24.9 ± 7.7 nM; Emax ([3]; maximal effect in percentage of the maximal effect of SRIF-14): 83.5 ± 4.4% |
| C[C@@H](O)[C@@H]1NC(=O)[C@H](CCCCN)NC(=O)[C@@H](Cc2c[nH]c3ccccc23)NC(=O)[C@H](Cc2ccccc2)NC(=O)[C@H](Cc2ccccc2)NC(=O)[C@H](CCCNC(=N)N)NC(=O)[C@H](N(CCSC[C@@H]2C[C@@H]3c4cccc5[nH]cc(c45)C[C@H]3N(C)C2)CCSC[C@@H]2C[C@@H]3c4cccc5[nH]cc(c45)C[C@H]3N(C)C2)CCCCNC(=O)[C@H](Cc2ccccc2)NC1=O [Compound 40, bis[Dop1-psi(CH2N)]-cyclo(DLys-Arg-Phe-Phe-DTrp-Lys-Thr-Phe)] (RFF[dW]KTF; linker N-C via X1) | – | – | – | – | 95 ± 6.1% | Ki [7]: 445 ± 143 nM |
